Measured values taken from patent US20220106289A1, “NLRP3 INHIBITORS” (INFLAZOME LIMITED, priority 2018, published 2022).
Structures can show the parent of a compound that is named as a salt.

Experiments:
NLRP3 [1] = target: T1, NLRP3 (Homo sapiens, UniProt Q96P20); test: Human whole blood IL-1β release assay (LPS + nigericin, AlphaLisa); format: cell-based; parameters: Human whole blood in Li-heparin tubes was obtained from healthy donors; from tissue; host or cells: human whole blood from healthy donors; settings: NLRP3 inhibitory activity, 1 μg/ml LPS, 10 μM nigericin, read-out: HWB IC50
Method: For systemic delivery, the ability to inhibit NLRP3 when the compounds are present within the bloodstream is of great importance. For this reason, the NLRP3 inhibitory activity of a number of compounds in human whole blood was investigated in accordance with the following protocol. Human whole blood in Li-heparin tubes was obtained from healthy donors from a volunteer donor panel. • 1. […] Incubate for 3 hrs at 37° C., 5% CO2 • 4. Add 10 μl nigericin (Sigma #N7143) (10 μM FAC) to all wells • 5. Incubate for 1 hr at 37° C., 5% CO2 • 6. At the end of the incubation period, spin plates at 300×g for 5 mins to pellet cells and remove 20 μl of supernatant and add to 96-well v-bottom plates for IL-1β analysis (note: these plates containing the supernatants can be stored at -80° C. to be analysed at a later date) • 7. IL-1β was measured according to the manufacturer protocol (Perkin Elmer-AlphaLisa IL-1 Kit A[…]-5000) • 8.

NLRP3 [2] = target: T1, NLRP3; test: THP-1 cells pyroptosis assay (LPS + nigericin, resazurin read-out); format: cell-based; parameters: Seed THP-1 cells (25,000 cells/well) containing 1.0 μg/ml LPS; host or cells: THP-1 cells; settings: NLRP3 inhibitory activity, 1 μg/ml LPS, 5 μM nigericin
Method: The cells were routinely passaged and grown to confluency (˜10^6 cells/ml). On the day of the experiment, THP-1 cells were harvested and resuspended into RPMI medium (without FBS). The cells were then counted and viability (>90%) checked by Trypan blue (Sigma #T8154). […] To this diluted cell solution was added LPS (Sigma #L4524) to give a 1 μg/ml Final Assay Concentration (FAC). 40 μl of the final preparation was aliquoted into each well of a 96-well plate. The plate thus prepared was used for compound screening. The following method step-by-step assay was followed for compound screening. • 1. […] Incubate for 3 hrs at 37° C., 5% CO2 • 4. Add 5 μl nigericin (Sigma #N7143) (FAC 5 μM) to all wells • 5. Incubate for 1 hr at 37° C., 5% CO2 • 6. At the end of the incubation period, spin plates at 300×g for 3 mins and remove supernatant • 7. Then add 50 μl of resazurin (Sigma #R7017) (FAC 100 μM resazurin in RPMI medium without FBS) and incubate plates for a further 1-2 hrs at 37° C. and 5% CO2 • 8.

T1 sequence (Q96P20 whole entry): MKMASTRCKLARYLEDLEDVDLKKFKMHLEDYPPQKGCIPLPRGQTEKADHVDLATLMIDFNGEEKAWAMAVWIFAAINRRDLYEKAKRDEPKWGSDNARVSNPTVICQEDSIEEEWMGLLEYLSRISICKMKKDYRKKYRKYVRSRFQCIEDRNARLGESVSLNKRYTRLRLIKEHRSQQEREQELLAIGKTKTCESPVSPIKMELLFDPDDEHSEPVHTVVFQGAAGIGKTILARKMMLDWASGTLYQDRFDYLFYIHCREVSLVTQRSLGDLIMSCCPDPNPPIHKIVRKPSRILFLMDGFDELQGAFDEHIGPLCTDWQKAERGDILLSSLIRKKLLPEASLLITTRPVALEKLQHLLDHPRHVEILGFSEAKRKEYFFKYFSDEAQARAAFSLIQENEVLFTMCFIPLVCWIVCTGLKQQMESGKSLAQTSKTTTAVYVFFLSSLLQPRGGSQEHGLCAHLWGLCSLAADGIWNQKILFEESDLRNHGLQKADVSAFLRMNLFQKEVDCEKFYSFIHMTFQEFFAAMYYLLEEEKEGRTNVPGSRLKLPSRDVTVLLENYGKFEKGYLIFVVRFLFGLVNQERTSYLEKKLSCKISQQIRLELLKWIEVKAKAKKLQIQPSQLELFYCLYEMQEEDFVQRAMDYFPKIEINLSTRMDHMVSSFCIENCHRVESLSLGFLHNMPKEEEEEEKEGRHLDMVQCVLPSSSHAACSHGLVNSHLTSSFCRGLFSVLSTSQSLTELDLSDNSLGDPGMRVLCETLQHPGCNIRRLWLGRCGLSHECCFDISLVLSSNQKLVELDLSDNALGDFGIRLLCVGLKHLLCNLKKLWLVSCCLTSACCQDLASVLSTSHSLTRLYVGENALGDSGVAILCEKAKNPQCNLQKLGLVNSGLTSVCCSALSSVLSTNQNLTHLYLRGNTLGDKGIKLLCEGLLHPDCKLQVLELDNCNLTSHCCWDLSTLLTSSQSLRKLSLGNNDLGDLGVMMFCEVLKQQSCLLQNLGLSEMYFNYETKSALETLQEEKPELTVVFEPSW

Row | SMILES | IC50 (NLRP3 [1]) [nM] | IC50 (NLRP3 [2]) [nM]
1 | CC(C)n1ccc(S(=O)(=O)NC(=O)Nc2c3c(c(Cl)c4c2CCC4)CCC3)n1 [Example 35, N-((8-Chloro-1,2,3,5,6,7-hexahydro-s-indacen-4-yl)carbamoyl)-1-isopropyl-1H-pyrazole-3-sulfonamide] | 5000 to 10000 | < 250
2 | [2H]C([2H])([2H])N(CCn1ccc(S(=O)(=O)NC(=O)Nc2c3c(cc4c2CCC4)CCC3)n1)C([2H])([2H])[2H] [Example 12, 1-(2-(Bis(methyl-d3)amino)ethyl)-N-((1,2,3,5,6,7-hexahydro-s-indacen-4-yl)carbamoyl)-1H-pyrazole-3-sulfonamide, potassium salt] | 500 to 1000 | < 250
3 | COC(C)(C)c1cc(S(=O)(=O)NC(=O)Nc2c(C(C)C)cc(F)cc2C(C)C)nn1C [Example 82, N-((4-Fluoro-2,6-diisopropylphenyl)carbamoyl)-5-(2-methoxypropan-2-yl)-1-methyl-1H-pyrazole-3-sulfonamide] | 500 to 1000 | 250 to 500
4 | C#CCCC1(CCn2ccc(S(=O)(=O)NC(=O)Nc3c4c(cc5c3CCC5)CCC4)n2)N=N1 [Example 16, 1-(2-(3-(But-3-yn-1-yl)-3H-diazirin-3-yl)ethyl)-N-((1,2,3,5,6,7-hexahydro-s-indacen-4-yl)carbamoyl)-1H-pyrazole-3-sulfonamide, potassium salt] | 5000 to 10000 | < 250
5 | CC(C)c1cc(Cl)cc(C(C)C)c1NC(=O)NS(=O)(=O)c1cnn(CC(F)(F)F)c1 [Example 40, N-((4-Chloro-2,6-diisopropylphenyl)carbamoyl)-1-(2,2,2-trifluoroethyl)-1H-pyrazole-4-sulfonamide] | 1000 to 5000 | 250 to 500
6 | CC(C)n1ncc(S(=O)(=O)NC(=O)Nc2c3c(cc4c2CCC4)CCC3)n1 [Example 48, N-((1,2,3,5,6,7-Hexahydro-s-indacen-4-yl)carbamoyl)-2-isopropyl-2H-1,2,3-triazole-4-sulfonamide] | 1000 to 5000 | < 250
7 | CC(C)n1cc(S(=O)(=O)NC(=O)Nc2c3c(c(Br)c4c2CCC4)CCC3)cn1 [Example 36, N-((8-Bromo-1,2,3,5,6,7-hexahydro-s-indacen-4-yl)carbamoyl)-1-isopropyl-1H-pyrazole-4-sulfonamide] | 5000 to 10000 | < 250
8 | CC(O)c1cc(S(=O)(=O)NC(=O)Nc2c3c(cc4c2CCC4)CCC3)nn1C(C)C (stereo not shown) [Example 54, N-((1,2,3,5,6,7-Hexahydro-s-indacen-4-yl)carbamoyl)-5-(1-hydroxyethyl)-1-isopropyl-1H-pyrazole-3-sulfonamide] | 500 to 1000 | < 250
9 | COC(C)(C)c1cc(S(=O)(=O)NC(=O)Nc2c(C(C)C)cccc2C(C)C)nn1C [Example 81, N-((2,6-Diisopropylphenyl)carbamoyl)-5-(2-methoxypropan-2-yl)-1-methyl-1H-pyrazole-3-sulfonamide] | 250 to 500 | 250 to 500
10 | Cc1cc(C(C)(C)O)ccc1S(=O)(=O)NC(=O)Cc1c(C(C)C)cc(F)cc1C(C)C [Example 2, 2-(4-Fluoro-2,6-diisopropylphenyl)-N-((4-(2-hydroxypropan-2-yl)-2-methylphenyl)sulfonyl)acetamide, potassium salt] | > 10000 | 250 to 500
11 | CC(C)n1cc(F)c(S(=O)(=O)NC(=O)Nc2c3c(cc4c2CCC4)CCC3)n1 [Example 55, 4-Fluoro-N-((1,2,3,5,6,7-hexahydro-s-indacen-4-yl)carbamoyl)-1-isopropyl-1H-pyrazole-3-sulfonamide] | 500 to 1000 | < 250
12 | O=C(Nc1c2c(cc3c1CCC3)CCC2)NS(=O)(=O)c1ccn(C2CCC2)n1 [Example 59, 1-Cyclobutyl-N-((1,2,3,5,6,7-hexahydro-s-indacen-4-yl)carbamoyl)-1H-pyrazole-3-sulfonamide] | 1000 to 5000 | < 250
13 | CC(C)(CN1CCCC1)n1ccc(S(=O)(=O)NC(=O)Nc2c3c(cc4c2CCC4)CCC3)n1 [Example 65, N-((1,2,3,5,6,7-Hexahydro-s-indacen-4-yl)carbamoyl)-1-(2-methyl-1-(pyrrolidin-1-yl)propan-2-yl)-1H-pyrazole-3-sulfonamide, sodium salt] | 250 to 500 | < 250
14 | CCn1cc(S(=O)(=O)NC(=O)Nc2c3c(cc4c2CCC4)CCC3)nn1 [Example 19, 1-Ethyl-N-((1,2,3,5,6,7-hexahydro-s-indacen-4-yl)carbamoyl)-1H-1,2,3-triazole-4-sulfonamide, potassium salt] | 500 to 1000 | 250 to 500
15 | O=C(Nc1c2c(cc3c1CCC3)C=CC2)NS(=O)(=O)c1cc[nH]n1 [Example 14, N-((1,2,3,5-Tetrahydro-s-indacen-4-yl)carbamoyl)-1H-pyrazole-3-sulfonamide, potassium salt] | 5000 to 10000 | 500 to 1000
16 | CC(C)n1ccc(S(=O)(=O)NC(=O)Nc2c3c(cc4c2CCC4O)CCC3)n1 (stereo not shown) [Example 21, N-((1-Hydroxy-1,2,3,5,6,7-hexahydro-s-indacen-4-yl)carbamoyl)-1-isopropyl-1H-pyrazole-3-sulfonamide] | 5000 to 10000 | 5000 to 10000
17 | O=C(Nc1c2c(cc3c1CCO3)CCC2)NS(=O)(=O)c1ccn(C2CC2)n1 [Example 67, 1-Cyclopropyl-N-((3,5,6,7-tetrahydro-2H-indeno[5,6-b]furan-4-yl)carbamoyl)-1H-pyrazole-3-sulfonamide] | 1000 to 5000 | < 250
18 | CC(C)c1cc(F)cc2c1C(C(=O)NS(=O)(=O)c1ccn(C3CC3)n1)CCC2(C)C (stereo not shown) [Example 6, N-((1-Cyclopropyl-1H-pyrazol-3-yl)sulfonyl)-6-fluoro-8-isopropyl-4,4-dimethyl-1,2,3,4-tetrahydronaphthalene-1-carboxamide] | 5000 to 10000 | 1000 to 5000
19 | CC(C)c1cc(F)cc2c1C(C(=O)NS(=O)(=O)c1cc(C(C)(C)O)cs1)CC2(C)C (single isomer, unassigned) [Example 8, 5-Fluoro-N-((4-(2-hydroxypropan-2-yl)thiophen-2-yl)sulfonyl)-7-isopropyl-3,3-dimethyl-2,3-dihydro-1H-indene-1-carboxamide, potassium salt (rotamer P1)] | 1000 to 5000 | 500 to 1000
20 | COC1(c2cc(S(=O)(=O)NC(=O)Nc3c4c(cc5c3CCC5)CCC4)nn2C)CCCC1 [Example 52, N-((1,2,3,5,6,7-hexahydro-s-indacen-4-yl)carbamoyl)-5-(1-methoxycyclopentyl)-1-methyl-1H-pyrazole-3-sulfonamide] | 500 to 1000 | < 250
21 | CN(C)Cc1ccc(S(=O)(=O)NC(=O)Nc2c3c(cc4c2CCC4)CCC3)cc1 [Example 66, 4-((Dimethylamino)methyl)-N-((1,2,3,5,6,7-hexahydro-s-indacen-4-yl)carbamoyl)benzenesulfonamide, sodium salt] | 250 to 500 | < 250
22 | COC(C)c1cc(S(=O)(=O)NC(=O)Nc2c3c(cc4c2CCC4)CCC3)nn1C (stereo not shown) [Example 53, N-((1,2,3,5,6,7-Hexahydro-s-indacen-4-yl)carbamoyl)-5-(1-methoxyethyl)-1-methyl-1H-pyrazole-3-sulfonamide] | 500 to 1000 | < 250
23 | O=C(Nc1c2c(cc3c1CCC3)CCC2)NS(=O)(=O)c1cc[nH]n1 [Example 13, N-((1,2,3,5,6,7-Hexahydro-s-indacen-4-yl)carbamoyl)-1H-pyrazole-3-sulfonamide, potassium salt] | > 10000 | 1000 to 5000
24 | CC(C)n1ccc(S(=O)(=O)NC(=O)Nc2c3c(c(F)c4c2CCC4)CCC3)n1 [Example 61, N-((8-Fluoro-1,2,3,5,6,7-hexahydro-s-indacen-4-yl)carbamoyl)-1-isopropyl-1H-pyrazole-3-sulfonamide, sodium salt] | 500 to 1000 | < 250
25 | CC(C)c1cc(C#N)cc(C(C)C)c1NC(=O)NS(=O)(=O)c1cc(C(C)(C)O)n(C)n1 [Example 71, N-((4-Cyano-2,6-diisopropylphenyl)carbamoyl)-5-(2-hydroxypropan-2-yl)-1-methyl-1H-pyrazole-3-sulfonamide] | 1000 to 5000 | 500 to 1000
26 | CC(C)c1cc(C#N)cc(C(C)C)c1NC(=O)NS(=O)(=O)c1ccn(C(C)C)n1 [Example 72, N-((4-Cyano-2,6-diisopropylphenyl)carbamoyl)-1-isopropyl-1H-pyrazole-3-sulfonamide] | 5000 to 10000 | 1000 to 5000
